This note sets out measurements from PubChem BioAssay (NCI).

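How tested: cells in 96-well plates exposed to compound for 48 hours at five concentrations. At the GI50, growth is halved. TGI marks complete inhibition of growth.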 The source made the active and inactive calls. Rule as the data show it: active = GI50 below about 0.43 µM; inactive = the rest. Some results are limits rather than exact numbers.

Common to all, as to test: growth of human tumour cells (NCI), 48 h
Assay [1] relates to NCI/ADR-RES ovarian.
In assay [2] the test system is MCF7 breast.
The test system of assay [3] is HS 578T breast.
The subject of assay [4] is T-47D breast.

As for `Cc1cc2c(cc1Cl)SC1=NN(C)S(=O)N1S2(=O)=O` (stereo not given), the GI50 in assay [1], in assay [2], in assay [3] and in assay [4] was more than 100 µM each time. The TGI in assay [1], in assay [2], in assay [3] and in assay [4] was more than 100 µM throughout.
With `COc1ccc(C(=O)C#Cc2cnc(OC)nc2OC)cc1`, the TGI is 79000 µM in assay [1], 2.54 µM in assay [2], 27.7 µM in assay [3] and 61400 µM in assay [4]. Further, in assay [3], the outcome was inactive.
Turning to `O=C(O)COCC(=O)N(CCOCCN(Cc1ccccc1)C(=O)COCC(=O)O)Cc1ccccc1`, the TGI in assay [1], in assay [2], in assay [3] and in assay [4] was more than 100 µM throughout.
Take `N#CSC1CCCCNC1=O` (stereo not given): the TGI is 29.1 µM in assay [1], 18.3 µM in assay [2], 50.4 µM in assay [3] and 52.5 µM in assay [4].
For the compound `COc1cc(C(=O)CBr)c(OC)cc1C`, the TGI in assay [1], in assay [2], in assay [3] and in assay [4] was more than 100 µM throughout.
Regarding `COc1ccc(-c2nc(-c3nc4ccc(Cl)cc4[nH]3)c3ccccn23)cc1`, the GI50 in assay [1] is 2.78 µM; in assay [2], 3.15 µM; in assay [3], 2.76 µM; in assay [4] it was 3.66 µM. In addition, the TGI is 9.2 µM in assay [1], 16 µM in assay [2], 8.06 µM in assay [3] and 20.2 µM in assay [4].
`COC(=O)Nc1nc2ccc(Oc3ccc(NC(=O)Nc4cc(C(F)(F)F)ccc4F)cc3)cc2s1`: the GI50 in assay [1] was 14.5 µM; in assay [2], more than 19.6 µM; in assay [3], 6.21 µM; in assay [4], more than 18 µM. Further, the TGI in assay [1], in assay [2], in assay [3] and in assay [4] was more than 25 µM throughout.
For the compound `Nc1nc(N(Cc2ccccc2)c2ccccc2)c2cn[nH]c2n1`, the GI50 in assay [2] was 4.34 µM; in assay [3], 2.7 µM; in assay [4], 4.34 µM. For the same compound, the TGI is more than 100 µM in assay [2], 7.91 µM in assay [3] and more than 100 µM in assay [4].
In the case of `CC(C)(CO)N1CCN(C(=S)Nc2ccccc2)CC1`, the TGI in assay [1], in assay [2], in assay [3] and in assay [4] was more than 100 µM throughout.
As for `Cc1cc(-c2cnn3c(NCC4CC(C)(O)C4)cc(Oc4cccnc4)nc23)ccc1C(=O)NC1CC1` (stereo not given), the GI50 was more than 100 µM in assay [1], 98.9 µM in assay [2] and 4.19 µM in assay [3]. Moreover, the TGI in assay [1], in assay [2] and in assay [3] was more than 100 µM throughout.
In the case of `Nc1nc2c(nnn2C2CC(O)C(CO)O2)c(=O)[nH]1` (stereo not given), the GI50 in assay [1] is 3.08 µM; in assay [2], 4.21 µM; in assay [3], more than 33.9 µM; in assay [4], 4.59 µM. For the same compound, the TGI is more than 100 µM in assay [1], more than 100 µM in assay [2], more than 95.7 µM in assay [3] and more than 65.1 µM in assay [4].
For the compound `CCOC(=S)SSSC(=S)OCC`, the TGI in assay [1] is more than 100 µM; in assay [2] it was more than 100 µM; in assay [3], more than 100 µM; in assay [4], 60 µM.
Take `O=C(CC1C(=O)NN(c2ccc(Br)cc2)C1=O)c1cc(O)ccc1O` (stereo not given): the GI50 in assay [1] was 19.6 µM; in assay [2], 21.2 µM; in assay [3], 26.2 µM. The TGI in assay [1], in assay [2] and in assay [3] was more than 50 µM in each case.
`O=C(Nc1ccc(-c2nc(N3CCOCC3)c3cccn3n2)cc1)Nc1cccnc1`: the GI50 in assay [1] is 0.393 µM; in assay [2] it was 0.0483 µM; in assay [3] it was 0.0545 µM. Further, the TGI in assay [1] turned out to be 6.27 µM; in assay [2], 1.49 µM; in assay [3], 0.416 µM.
Take `NC(=O)NS(=O)(=O)c1ccc(N2N=C(C(F)(F)F)CC2c2cc(C(F)(F)F)cc(C(F)(F)F)c2)cc1` (stereo not given): the GI50 was 6.95 µM in assay [1], 1.85 µM in assay [2] and 3.73 µM in assay [4]. The TGI in assay [1] was 21.6 µM; in assay [2], 4.86 µM; in assay [4] it was 17.2 µM.
In the case of `O=c1cc(-c2ccccc2)oc2cc(OC/C(=N/O)c3ccccc3)ccc12`, the values for the GI50 in assay [1] and in assay [4] were 19.8 µM and more than 50 µM, respectively. Further, the TGI in assay [1] and in assay [4] was more than 50 µM in each case.
With `CN(C)/N=C(/CC(O)(C(F)(F)F)C(F)(F)F)c1ccc([N+](=O)[O-])cc1`, the TGI in assay [1], in assay [3] and in assay [4] was more than 100 µM throughout.
On to `Cc1ccc2c(c1)Sc1c(ccc3ccccc13)N2`, for which the results for the GI50 in assay [1], in assay [2] and in assay [4] were 41.9 µM, more than 100 µM and 38.3 µM, respectively. The TGI in assay [1], in assay [2] and in assay [4] was more than 100 µM each time.
